Assay results: US20230339937A1, “CONDENSED RING COMPOUNDS THAT INHIBIT H-PGDS” (SATO PHARMACEUTICAL CO., LTD., priority 2020, published 2023)
Structures can show the parent of a compound that is named as a salt.

biological target: T1, Recombinant human H-PGDS (Homo sapiens, UniProt O60760); experiment: H-PGDS inhibitory activity (prostaglandin D2 production from prostaglandin H2, measured by LC-MS/MS); assay type: biochemical; conditions: recombinant human H-PGDS 1.0 nM expressed in E. coli; prostaglandin H2 25 μM; preincubated 15 minutes on ice, reacted on ice for 1 minute; concentration that inhibits prostaglandin D2 production by 50%
T1 construct: made in house; host or cells: E. coli
Procedure: The H-PGDS inhibitory activity of each Example compound was measured according to the method reported by LIN, Jiang. et al. (NO 2007/041634).
Recombinant human H-PGDS (final concentration: 1.0 nM) expressed in E. coli was mixed in an assay buffer containing 20 mM Tris-HCl (pH 8.0), 2 mM magnesium chloride, 2 mM reduced glutathione, and 0.5 mg/mL γ-globulin, and 150 μL of the mixture was dispensed into a 8-strip PCR tube (BM Equipment Co., Ltd.). Test compounds (Example compounds) (16.5 μL) at various concentrations dissolved in DMSO were added and the mixture was preincubated for 15 minutes on ice.
Prostaglandin H2 (final concentration: 25 μM) (Cayman Chemical) was dispensed into another 8-strip PCR tube, and the solvent was dried and solidified using a vacuum concentrator (Thermo Fisher Scientific). To the dried and solidified prostaglandin H2 was added 50 μL of the assay buffer containing H-PGDS and each test compound after the preincubation, and the mixture was reacted on ice for 1 minute. 45 μL of this mixture was added to 45 μL of a stop solution (50 mM aqueous citric acid solution containing iron chloride at a final concentration of 4 mg/mL) to stop the reaction. Then, the reaction solution was deproteinized, added to a 96 square deep well plate (SHONANMARUHACHI STEC Co., Ltd.), and the prostaglandin D2 concentration in the reaction solution was measured by LC-MS/MS. ACQUITY (registered trademark) TQD (Waters) was used as a measuring instrument.
Prostaglandin Da production activity (f) in the group with each test compound when a value obtained by subtracting the amount of production of prostaglandin D2 in the group without enzyme, which is non-specific production of prostaglandin D2, from the amount of production of prostaglandin Da in the group without test compound (DMSO-addition group) in each 8-strip PCR tube is 100% was calculated.

T1 sequence (O60760 whole entry): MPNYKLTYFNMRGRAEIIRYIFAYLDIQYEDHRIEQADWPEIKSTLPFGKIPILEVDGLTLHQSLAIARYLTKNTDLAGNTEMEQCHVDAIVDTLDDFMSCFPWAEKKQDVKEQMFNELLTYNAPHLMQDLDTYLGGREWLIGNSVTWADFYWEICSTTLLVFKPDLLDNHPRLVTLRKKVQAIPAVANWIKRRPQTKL

Compound | IC50 [nM]
O=C(NC1CCN(c2ncc(Br)cn2)CC1)c1ccc(-c2nccc3occc23)cc1 [Example 154, N-[1-(5-bromopyrimidin-2-yl)piperidin-4-yl]-4-(furo[3,2-c]pyridin-4-yl)benzamide] | 6.3
Cc1cccnc1N1CCC(NC(=O)c2ccc(-c3nccc4occc34)cc2)CC1 [Example 153, 4-(furo[3,2-c]pyridin-4-yl)-N-[1-(3-methylpyridin-2-yl)piperidin-4-yl]benzamide] | 4.1
O=C(NCC1CCOC1)c1ccc(-c2nccc3occc23)cc1 (stereo not drawn) [Example 81, 4-(furo[3,2-c]pyridin-4-yl)-N-[(tetrahydrofuran-3-yl)methyl] benzamide] | 11
O=C(N[C@H]1CC[C@H](N2CCOCC2)CC1)c1ccc(-c2nccc3occc23)cc1 [Example 305, 4-(furo[3,2-c]pyridin-4-yl)-N-(trans-4-morpholinocyclohexyl)benzamide] | 55
C=Cc1cc2occc2c(-c2ccc(C(=O)N[C@H]3CC[C@H](C(C)(C)O)CC3)cc2)n1 [Example 313, N-[trans-4-(2-hydroxypropan-2-yl)cyclohexyl]-4-(6-vinylfuro[3,2-c]pyridin-4-yl)benzamide] | 169
C[C@]1(O)CC[C@@H](NC(=O)c2ccc(-c3nccc4occc34)cc2)CC1 [Example 283, 4-(furo[3,2-c]pyridin-4-yl)-N-(cis-4-hydroxy-4-methylcyclohexyl)benzamide] | 1.7
C[C@]1(O)CC[C@H](NC(=O)c2ccc(-c3nccc4occc34)cc2)CC1 [Example 259, 4-(furo[3,2-c]pyridin-4-yl)-N-(trans-4-hydroxy-4-methylcyclohexyl)benzamide] | 2
CC(C)N(CCNC(=O)c1ccc(-c2nccc3sccc23)cc1)C(C)C [Example 62, N-[2-(diisopropylamino)ethyl]-4-(thieno[3,2-c]pyridin-4-yl)benzamide dihydrochloride] | 86
O=C(NC1CCN(c2ccc(Cl)nn2)CC1)c1ccc(-c2nccc3occc23)cc1 [Example 148, N-[1-(6-chloropyridazin-3-yl)piperidin-4-yl]-4-(furo[3,2-c]pyridin-4-yl)benzamide] | 1.8
Cc1ccnc(N2CCC(NC(=O)c3ccc(-c4nccc5occc45)cc3)CC2)c1 [Example 150, 4-(furo[3,2-c]pyridin-4-yl)-N-[1-(4-methylpyridin-2-yl)piperidin-4-yl]benzamide] | 1.7
O=C(N[C@@H]1CCC[C@H](O)C1)c1ccc(-c2nccc3occc23)cc1 (relative stereo) [Example 265, 4-(furo[3,2-c]pyridin-4-yl)-N-(cis-3-hydroxycyclohexyl)benzamide] | 4.8
O=C(NC1CN(c2ncccn2)C1)c1ccc(-c2nccc3occc23)cc1 [Example 217, 4-(furo[3,2-c]pyridin-4-yl)-N-[1-(pyrimidin-2-yl)azetidin-3-yl]benzamide] | 2.4
O=C(NCC1CCCCC1)c1ccc(-c2nccc3occc23)cc1 [Example 85, N-(cyclohexyl-methyl)-4-(furo[3,2-c]pyridin-4-yl)benzamide] | 32
O=C(NCc1ccccc1CO)c1ccc(-c2nccc3occc23)cc1 [Example 65, 4-(furo[3,2-c]pyridin-4-yl)-N-[2-(hydroxymethyl)benzyl]benzamide] | 9
NS(=O)(=O)c1ccc(NC(=O)c2ccc(-c3nccc4occc34)cc2)cc1 [Example 102, 4-(furo[3,2-c]pyridin-4-yl)-N-(4-sulfamoylphenyl) benzamide] | 1.8
O=C(NCc1ccccc1)c1ccc(-c2nccc3occc23)cc1 [Example 67, N-benzyl-4-(furo[3,2-c]pyridin-4-yl)benzamide] | 27
O=C(N[C@H]1CC[C@H](O)CC1)c1ccc(-c2nccc3occc23)cc1 [Example 256, 4-(furo[3,2-c]pyridin-4-yl)-N-(trans-4-hydroxycyclohexyl)benzamide] | 2.6
O=C(NCc1ccccn1)c1ccc(-c2nccc3occc23)cc1 [Example 93, 4-(furo[3,2-c]pyridin-4-yl)-N-(pyridin-2-ylmethyl) benzamide] | 32
O=C(N[C@H]1CCN(c2ccnc(Cl)c2)C1)c1ccc(-c2nccc3occc23)cc1 [Example 195, (S)-N-[1-(2-chloropyridin-4-yl)pyrrolidin-3-yl]-4-(furo[3,2-c]pyridin-4-yl)benzamide] | 1.7
O=C(Nc1ccncc1)c1ccc(-c2nccc3occc23)cc1 [Example 108, 4-(furo[3,2-c]pyridin-4-yl)-N-(pyridin-4-yl)benzamide] | 5
CCn1nnnc1N1CC[C@H](NC(=O)c2ccc(-c3nccc4occc34)cc2)C1 [Example 232, (S)-4-(furo[3,2-c]pyridin-4-yl)-N-[1-(1-ethyl-1H-tetrazol-5-yl)pyrrolidin-3-yl]benzamide] | 2
O=C(N[C@H]1CC[C@H](OC(F)F)CC1)c1ccc(-c2nccc3occc23)cc1 [Example 263, N-[trans-4-(difluoromethoxy)cyclohexyl]-4-(furo[3,2-c]pyridin-4-yl)benzamide] | 4.2

Continued, values first:

IC50 [nM] | Compound
0.63 | O=C(NCCCN1CCS(=O)(=O)CC1)c1ccc(-c2nccc3[nH]ccc23)cc1 [Example 46, N-[3-(1,1-dioxidothiomorpholino)propyl]-4-(1H-pyrrolo[3,2-c]pyridin-4-yl)benzamide]
0.89 | Cc1nn(C)c(C)c1CNC(=O)c1ccc(-c2nccc3[nH]ccc23)cc1 [Example 40, 4-(1H-pyrrolo[3,2-c]pyridin-4-yl)-N-[(1,3,5-trimethyl-1H-pyrazol-4-yl)methyl] benzamide]
1.7 | CC(C)(O)CO[C@H]1CC[C@@H](NC(=O)c2ccc(-c3nccc4occc34)cc2)CC1 [Example 348, 4-(furo[3,2-c]pyridin-4-yl)-N-[cis-4-(2-hydroxy-2-methylpropoxy)cyclohexyl]benzamide]
1.5 | O=C(NC12CCC(O)(CC1)C2)c1ccc(-c2nccc3occc23)cc1 [Example 349, 4-(furo[3,2-c]pyridin-4-yl)-N-(4-hydroxybicyclo[2.2.1]heptan-1 yl)benzamide]
0.83 | O=C(NCC1CCCO1)c1ccc(-c2nccc3[nH]ccc23)cc1 (stereo not drawn) [Example 20, 4-(1H-pyrrolo[3,2-c]pyridin-4-yl)-N-[(tetrahydrofuran-2-yl)methyl] benzamide]
1.6 | Cn1nnnc1N1CCC(NC(=O)c2ccc(-c3nccc4occc34)cc2)CC1 [Example 99, 4-(furo[3,2-c]pyridin-4-yl)-N-[1-(1-methyl-1H-tetrazol-5-yl)piperidin-4-yl]benzamide]
0.87 | CCO[C@H]1CC[C@H](NC(=O)c2ccc(-c3nccc4occc34)cc2)CC1 [Example 287, N-(trans-4-ethoxycyclohexyl)-4-(furo[3,2-c]pyridin-4-yl)benzamide]
1.6 | Cc1cc(NC(=O)c2ccc(-c3nccc4occc34)cc2)ccc1S(N)(=O)=O [Example 116, 4-(furo[3,2-c]pyridin-4-yl)-N-(3-methyl-4-sulfamoylphenyl) benzamide]
1.5 | O=C(NC1CCN(c2ncccc2F)CC1)c1ccc(-c2nccc3occc23)cc1 [Example 144, N-[1-(3-fluoropyridin-2-yl)piperidin-4-yl]-4-(furo[3,2-c]pyridin-4-yl)benzamide]
0.74 | Cc1c(CNC(=O)c2ccc(-c3nccc4[nH]ccc34)cc2)cnn1C [Example 42, N-[(1,5-dimethyl-1H-pyrazol-4-yl)methyl]-4-(1H-pyrrolo[3,2-c]pyridin-4-yl)benzamide]
1.2 | NC(=O)c1cc(N2CCC(NC(=O)c3ccc(-c4nccc5occc45)cc3)CC2)ccn1 [Example 176, 4-{4-[4-(furo[3,2-c]pyridin-4-yl)benzamide]piperidin-1-yl}picolinamide]
0.79 | COCCNC(=O)c1ccc(-c2nccc3[nH]ccc23)cc1 [Example 23, N-(2-methoxyethyl)-4-(1H-pyrrolo[3,2-c]pyridin-4-yl)benzamide]
1.6 | COC(=O)[C@H]1CC[C@H](NC(=O)c2ccc(-c3nccc4occc34)cc2)CC1 [Example 261, Methyl trans-4-[4-(furo[3,2-c]pyridin-4-yl)benzamide]cyclohexane-1-carboxylate]
0.58 | O=C(NC1CCC1)c1ccc(-c2nccc3[nH]ccc23)cc1 [Example 13, N-cyclobutyl-4-(1H-pyrrolo[3,2-c]pyridin-4-yl)benzamide]
0.98 | CCOCCNC(=O)c1ccc(-c2nccc3[nH]ccc23)cc1 [Example 27, N-(2-ethoxyethyl)-4-(1H-pyrrolo[3,2-c]pyridin-4-yl)benzamide]
1.3 | N#CC12CCC(NC(=O)c3ccc(-c4nccc5occc45)cc3)(CC1)CC2 [Example 351, N-(4-cyanobicyclo[2.2.2]octan-1-yl)-4-(furo[3,2-c]pyridin-4-yl)benzamide]
1.5 | O=C(NCc1ccccn1)c1ccc(-c2nccc3[nH]ccc23)cc1 [Example 9]
